Reference: patent EP4755886A1 (Chengdu Chipscreen Pharmaceutical Ltd., priority 2023, dated 2025)

Assays:
[1] = system: wild-type HCT-116 cells; test: Cell proliferation (MTS), wild-type HCT-116; type: cell-based; details: Homo sapiens, 240 h; wild-type HCT-116, 10 days with compound, MTS reading; read-out: IC50 HCT116 WT
Method: (§1) MTAP^-/- HCT-116 and wild-type HCT-116 cell strains were cultured in complete medium McCoy's 5A (Gibco, 16600082)/10% FBS (Gibco, 10099141C)/1% p/s (Gibco, 15140122) to evaluate the enhanced inhibitory effect of the compounds against the proliferation selectivity of MTAP^-/- HCT-116 cells. On day 0, MTAP^-/- HCT-116 cells or wild-type HCT-116 cells were added to a 96-well cell culture plate (Corning, 3599) at 100 cells/well, and the plate was incubated in an incubator at 37 °C with 5% CO2. The compound was diluted in a 3-fold gradient with DMSO (Sigma, D5879) (initial concentration: 20 µM, 3-fold dilution, 8 concentration points in total). On day 1, the compound was diluted to multiple concentration points, and the cells were treated separately and incubated in the incubator at 37 °C with 5% CO2 for another 10 days. On Day 11, 20 µL of MTS (CellTiter 96® AQueous One Solution Cell Proliferation Assay) (Promega, G3581) was added to each well. […] In the formula, Y represents the inhibition rate, X represents the logarithm of the compound concentration, Top represents the maximum response (the inhibition rate at the maximum compound concentration), Bottom represents the baseline response (the inhibition rate where the compound concentration was 0), Hill Slope represents the slope of the IC50 curve, and IC50 represents the half maximal inhibitory concentration. Table 1. IC50 (µM)

[2] = system: MTAP^-/- HCT-116 cells; test: Cell proliferation (MTS), MTAP-/- HCT-116; type: cell-based, human; details: for Selectivity: HCT116 WT IC50 relative to HCT116 MTAP-/- IC50; for IC50: Homo sapiens, 240 h, MTAP-/- HCT-116, 10 days with compound, MTS reading, read-out: IC50 HCT116 MTAP-/-
Description: The colon cancer cell strain HCT-116 (purchased from Nanjing Cobioer) was co-transfected with the gene editing tool CRISPR/Cas9 and sgRNA, and the MTAP^-/- HCT-116 cell strain with biallelic inactivation of MTAP was obtained by assays such as Western Blotting and Sanger sequencing. The MTAP^-/- HCT-116 cell strain was used for compound selectivity screening and evaluation based on the synergistic mechanism of MTAP deletion and PRMT5, including a symmetric dimethylarginine (SDMA) level test, a cell proliferation test, and the like.
as §1, with “On” for “MTAP^-/- HCT-116 and wild-type HCT-116 cell strains were cultured in complete medium McCoy's 5A (Gibco, 16600082)/10% FBS (Gibco, 10099141C)/1% p/s (Gibco, 15140122) to evaluate the enhanced inhibitory effect of the compounds against the proliferation selectivity of MTAP^-/- HCT-116 cells. On”, “concentration.” for “concentration. Table 1. IC50 (µM)”

| SMILES | IC50 [1] | IC50 [2] | Selectivity [2] |
| --- | --- | --- | --- |
| Cc1c(C#Cc2ccc3c(c2)OCC3N(C)C(=O)c2ccc3nc(N)c4cnn(C)c4c3c2)cnn1C (stereo not drawn) [Compound 29, 4-amino-N-(6-((1,5-dimethyl-1H-pyrazol-4-yl)ethynyl)-2,3-dihydrobenzofuran-3-yl)-N,1-dimethyl-1H-pyrazolo[4,3-c]quinoline-8-carboxamide] | 1500 nM | 9.8 nM | 153 |
| Cc1c(C#Cc2ccc3c(c2)OC[C@H]3N(C)C(=O)c2ccc3nc(N)c4cnn(C)c4c3c2)cnn1C [Compound 29A, (S)-4-amino-N-(6-((1,5-dimethyl-1H-pyrazol-4-yl)ethynyl)-2,3-dihydrobenzofuran-3-yl)-N,1-dimethyl-1H-pyrazolo[4,3-c]quinoline-8-carboxamide] | 480 nM | 3.6 nM | 133 |
| CN(C(=O)c1ccc2nc(N)c3cnn(C)c3c2c1)[C@@H]1COc2cc(C#Cc3cn(C)nc3C(F)(F)F)ccc21 [Compound 31A, (S)-4-amino-N,1-dimethyl-N-(6-((1-methyl-3-(trifluoromethyl)-1H-pyrazol-4-yl)ethynyl)-2,3-dihydrobenzofuran-3-yl)-1H-pyrazolo[4,3-c]quinoline-8-carboxamide] | 192 nM | 3.3 nM | 58 |
| CN(C(=O)c1cc2c(cc1F)nc(N)c1cnn(C)c12)C1COc2nc(C#Cc3cnn(C)c3)ccc21 (stereo not drawn) [Compound 33, 4-amino-7-fluoro-N,1-dimethyl-N-(6-((1-methyl-1H-pyrazol-4-yl)ethynyl)-2,3-dihydrofuro[2,3-b]pyridin-3-yl)-1H-pyrazolo[4,3-c]quinoline-8-carboxamide] | 567 nM | 4.4 nM | 129 |

More lines, main results first:

| IC50 [1] | IC50 [2] | SMILES | Selectivity [2] |
| --- | --- | --- | --- |
| 240 nM | 2.9 nM | CN(C(=O)c1ccc2nc(N)c3cnn(C)c3c2c1)[C@@H]1COc2cc(C#Cc3cnn(C(F)F)c3)ccc21 [Compound 30A, (S)-4-amino-N-(6-((1-(difluoromethyl)-1H-pyrazol-4-yl)ethynyl)-2,3-dihydrobenzofuran-3-yl)-N,1-dimethyl-1H-pyrazolo[4,3-c]quinoline-8-carboxamide] | 83 |
| 1460 nM | 14.2 nM | CN(C(=O)c1ccc2nc(N)c3cnn(C)c3c2c1)C1COc2cc(C#Cc3cn(C)nc3C(F)(F)F)ccc21 (stereo not drawn) [Compound 31, 4-amino-N,1-dimethyl-N-(6-((1-methyl-3-(trifluoromethyl)-1H-pyrazol-4-yl)ethynyl)-2,3-dihydrobenzofuran-3-yl)-1H-pyrazolo[4,3-c]quinoline-8-carboxamide] | 102 |
| 2270 nM | 22 nM | CN(C(=O)c1cc2c(cc1F)nc(N)c1cnn(C)c12)C1COc2cc(C#Cc3cn(C)nc3C(F)(F)F)ccc21 (stereo not drawn) [Compound 32, 4-amino-7-fluoro-N,1-dimethyl-N-(6-((1-methyl-3-(trifluoromethyl)-1H-pyrazol-4-yl)ethynyl)-2,3-dihydrobenzofuran-3-yl)-1H-pyrazolo[4,3-c]quinoline-8-carboxamide] | 103 |
| 1140 nM | 7.6 nM | CN(C(=O)c1ccc2nc(N)c3cnn(C)c3c2c1)C1COc2cc(C#Cc3cn(C)nc3Cl)ccc21 (stereo not drawn) [Compound 34, 4-amino-N-(6-((3-chloro-1-methyl-1H-pyrazol-4-yl)ethynyl)-2,3-dihydrobenzofuran-3-yl)-N,1-dimethyl-1H-pyrazolo[4,3-c]quinoline-8-carboxamide] | 150 |
| 266 nM | 2 nM | CN(C(=O)c1ccc2nc(N)c3cnn(C)c3c2c1)[C@@H]1COc2cc(C#Cc3cn(C)nc3Cl)ccc21 [Compound 34A, (S)-4-amino-N-(6-((3-chloro-1-methyl-1H-pyrazol-4-yl)ethynyl)-2,3-dihydrobenzofuran-3-yl)-N,1-dimethyl-1H-pyrazolo[4,3-c]quinoline-8-carboxamide] | 133 |
